Experimental data reported in ChEMBL document CHEMBL4257221, “Peptides comprising non-natural amino acids and methods of making and using the same” (2016).
Numbered stars: 1 amine (or outer) side, 2 acyl side, 3 side chain; on linkers, the order of the positions; unused ones are H or OH. Square brackets hold non-standard residues; d marks the D form. Peptide text beside a SMILES is read from it. ξ: configuration not given here. X1 = O=C([C@H]1CCC[C@@H]1N[*:1])[*:2]; X2 = O=C([C@H]1CNC[C@@H]1N[*:1])[*:2]; ξβ3hY = NC(CC(=O)O)Cc1ccc(O)cc1; ξβ3hN = NC(=O)CC(N)CC(=O)O; ξβ3hL = CC(C)CC(N)CC(=O)O; ξβ3hK = NCCCCC(N)CC(=O)O; ξβ3hT = CC(O)C(N)CC(=O)O; ξβ3hV = CC(C)C(N)CC(=O)O; ξβ3hS = NC(CO)CC(=O)O; βAla = NCCC(=O)O

Columns and labels:
[1] = target: T1, Vasoactive intestinal polypeptide receptor 2 (Homo sapiens, UniProt P41587); assay: Agonist activity at human VIPR2 expressed in CHOK1 cells assessed as intracellular cAMP accumulation after 60 mins by PathHunter assay; format: functional, cell-based
T1 sequence (P41587 whole entry): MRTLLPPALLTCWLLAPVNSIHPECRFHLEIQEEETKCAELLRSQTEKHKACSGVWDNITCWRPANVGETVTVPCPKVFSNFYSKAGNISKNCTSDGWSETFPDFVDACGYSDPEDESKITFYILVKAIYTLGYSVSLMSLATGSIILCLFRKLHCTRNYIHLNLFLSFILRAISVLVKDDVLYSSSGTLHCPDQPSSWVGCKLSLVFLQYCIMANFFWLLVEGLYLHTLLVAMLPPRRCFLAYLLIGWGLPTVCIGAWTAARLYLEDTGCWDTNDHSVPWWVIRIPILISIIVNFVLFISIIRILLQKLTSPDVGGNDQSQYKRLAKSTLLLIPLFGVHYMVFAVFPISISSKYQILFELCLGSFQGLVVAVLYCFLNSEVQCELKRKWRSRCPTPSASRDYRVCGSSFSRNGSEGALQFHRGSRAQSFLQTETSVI

[2] = target: T2, Vasoactive intestinal polypeptide receptor 1 (Homo sapiens, UniProt P32241); assay: Agonist activity at human VIPR1 expressed in CHOK1 cells assessed as intracellular cAMP accumulation after 60 mins by PathHunter assay; format: functional, cell-based
T2 sequence (P32241 whole entry): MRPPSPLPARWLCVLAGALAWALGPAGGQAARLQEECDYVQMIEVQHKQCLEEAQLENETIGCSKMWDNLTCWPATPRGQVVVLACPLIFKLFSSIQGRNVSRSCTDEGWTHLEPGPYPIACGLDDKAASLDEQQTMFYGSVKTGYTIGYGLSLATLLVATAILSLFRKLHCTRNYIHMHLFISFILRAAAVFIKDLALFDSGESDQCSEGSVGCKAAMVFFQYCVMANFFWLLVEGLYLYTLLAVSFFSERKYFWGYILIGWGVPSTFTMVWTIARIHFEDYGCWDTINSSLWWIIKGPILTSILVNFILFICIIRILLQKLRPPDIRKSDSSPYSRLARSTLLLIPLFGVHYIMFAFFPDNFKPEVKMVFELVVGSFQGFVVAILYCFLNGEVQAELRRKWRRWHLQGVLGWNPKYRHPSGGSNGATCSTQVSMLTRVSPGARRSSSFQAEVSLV

Compound	EC50 [1] [µM]	EC50 [2] [µM]
CC[C@H](C)[C@H](NC(=O)[C@H](C)NC(=O)[C@H](CC(N)=O)NC(=O)CC(CC(C)C)NC(=O)[C@H](Cc1ccc(O)cc1)NC(=O)[C@H](CCCCN)NC(=O)[C@H](CCCCN)NC(=O)CC(NC(=O)[C@H](C)NC(=O)[C@H](CC(C)C)NC(=O)[C@H](CCC(N)=O)NC(=O)CC(CCCCN)NC(=O)[C@H](CCCNC(=N)N)NC(=O)[C@H](CC(C)C)NC(=O)[C@H](CCCNC(=N)N)NC(=O)CC(NC(=O)[C@H](Cc1ccc(O)cc1)NC(=O)[C@H](CC(N)=O)NC(=O)[C@H](CC(=O)O)NC(=O)[C@@H](NC(=O)[C@H](Cc1ccccc1)NC(=O)[C@@H](NC(=O)[C@H](C)NC(=O)[C@H](CC(=O)O)NC(=O)[C@H]1CCC[C@@H]1NC(=O)[C@@H](N)Cc1cnc[nH]1)C(C)C)[C@@H](C)O)C(C)O)C(C)C)C(=O)NC(CC(=O)N[C@@H](CC(N)=O)C(=O)O)CC(C)C (stereo partly drawn) (H-H[X1]DAVFTDNY[ξβ3hT]RLR[ξβ3hK]QLA[ξβ3hV]KKY[ξβ3hL]NAI[ξβ3hL]N-OH)	4.9	0.00566
CC[C@H](C)[C@H](NC(=O)[C@H](C)NC(=O)[C@H](CC(N)=O)NC(=O)CC(CC(C)C)NC(=O)[C@H](Cc1ccc(O)cc1)NC(=O)[C@H](CCCCN)NC(=O)[C@H](CCCCN)NC(=O)CC(NC(=O)[C@H](C)NC(=O)[C@H](CC(C)C)NC(=O)[C@H](CCC(N)=O)NC(=O)CC(CCCCN)NC(=O)[C@H](CCCNC(=N)N)NC(=O)[C@H](CC(C)C)NC(=O)[C@H](CCCNC(=N)N)NC(=O)CC(NC(=O)[C@H](Cc1ccc(O)cc1)NC(=O)[C@H](CC(N)=O)NC(=O)[C@H](CC(=O)O)NC(=O)[C@@H](NC(=O)[C@H](Cc1ccccc1)NC(=O)[C@H]1CCC[C@@H]1NC(=O)[C@H](C)NC(=O)[C@H](CC(=O)O)NC(=O)[C@H]1CCC[C@@H]1NC(=O)[C@@H](N)Cc1cnc[nH]1)[C@@H](C)O)C(C)O)C(C)C)C(=O)NC(CC(=O)N[C@@H](CC(N)=O)C(=O)O)CC(C)C (stereo partly drawn) (H-H[X1]DA[X1]FTDNY[ξβ3hT]RLR[ξβ3hK]QLA[ξβ3hV]KKY[ξβ3hL]NAI[ξβ3hL]N-OH)	0.0796	0.000358
CC(C)C[C@H](NC(=O)[C@H](CC(=O)O)NC(=O)[C@H](CC(N)=O)NC(=O)[C@H]1CCC[C@@H]1NC(=O)[C@H](Cc1ccc(O)cc1)NC(=O)[C@H](CCCCN)NC(=O)[C@H]1CNC[C@@H]1NC(=O)[C@H](C)NC(=O)[C@H](C)NC(=O)[C@H](CC(C)C)NC(=O)[C@H](CCC(N)=O)NC(=O)[C@H](CCCCN)NC(=O)[C@H](CCCNC(=N)N)NC(=O)[C@H](CC(C)C)NC(=O)[C@H](CCCCN)NC(=O)[C@@H](NC(=O)CC(Cc1ccc(O)cc1)NC(=O)CC(CC(N)=O)NC(=O)[C@H](CCC(=O)O)NC(=O)[C@@H](NC(=O)[C@H](Cc1ccccc1)NC(=O)[C@H]1CCC[C@@H]1NC(=O)[C@H](C)NC(=O)[C@H](CC(=O)O)NC(=O)[C@H]1CCC[C@@H]1NC(=O)[C@@H](N)Cc1cnc[nH]1)[C@@H](C)O)[C@@H](C)O)C(=O)NC(CCCCN)CC(=O)N[C@@H](CCCCN)C(=O)NCC(=O)NCCC(=O)N[C@H](C(=O)O)[C@@H](C)O (stereo partly drawn) (H-H[X1]DA[X1]FTE[ξβ3hN][ξβ3hY]TKLRKQLAA[X2]KY[X1]NDL[ξβ3hK]KG[βAla]T-OH)	0.0956	0.932
CC[C@H](C)[C@H](NC(=O)[C@H](C)NC(=O)[C@H](CC(N)=O)NC(=O)CC(CC(C)C)NC(=O)[C@H](Cc1ccc(O)cc1)NC(=O)[C@H](CCCCN)NC(=O)[C@H](CCCCN)NC(=O)CC(NC(=O)[C@H](C)NC(=O)[C@H](CC(C)C)NC(=O)[C@H](CCC(N)=O)NC(=O)CC(CCCCN)NC(=O)[C@H](CCCNC(=N)N)NC(=O)[C@H](CC(C)C)NC(=O)[C@H](CCCNC(=N)N)NC(=O)CC(NC(=O)[C@H](Cc1ccc(O)cc1)NC(=O)[C@H](CC(N)=O)NC(=O)[C@H](CC(=O)O)NC(=O)[C@@H](NC(=O)[C@H](Cc1ccccc1)NC(=O)CC(NC(=O)[C@H](C)NC(=O)[C@H](CC(=O)O)NC(=O)[C@H]1CCC[C@@H]1NC(=O)[C@@H](N)Cc1cnc[nH]1)C(C)C)[C@@H](C)O)C(C)O)C(C)C)C(=O)NC(CC(=O)N[C@@H](CC(N)=O)C(=O)O)CC(C)C (stereo partly drawn) (H-H[X1]DA[ξβ3hV]FTDNY[ξβ3hT]RLR[ξβ3hK]QLA[ξβ3hV]KKY[ξβ3hL]NAI[ξβ3hL]N-OH)	0.262	0.00443
CC[C@H](C)[C@H](NC(=O)[C@H](C)NC(=O)[C@H](CC(N)=O)NC(=O)CC(CC(C)C)NC(=O)[C@H](Cc1ccc(O)cc1)NC(=O)[C@H](CCCCN)NC(=O)[C@H](CCCCN)NC(=O)CC(NC(=O)[C@H](C)NC(=O)[C@H](CC(C)C)NC(=O)[C@H](CCC(N)=O)NC(=O)CC(CCCCN)NC(=O)[C@H](CCCNC(=N)N)NC(=O)[C@H](CC(C)C)NC(=O)[C@H](CCCNC(=N)N)NC(=O)CC(NC(=O)[C@H](Cc1ccc(O)cc1)NC(=O)[C@H](CC(N)=O)NC(=O)[C@H](CC(=O)O)NC(=O)[C@@H](NC(=O)[C@H](Cc1ccccc1)NC(=O)CC(NC(=O)[C@H](C)NC(=O)[C@H](CC(=O)O)NC(=O)CC(CO)NC(=O)[C@@H](N)Cc1cnc[nH]1)C(C)C)[C@@H](C)O)C(C)O)C(C)C)C(=O)NC(CC(=O)N[C@@H](CC(N)=O)C(=O)O)CC(C)C (stereo partly drawn) (H-H[ξβ3hS]DA[ξβ3hV]FTDNY[ξβ3hT]RLR[ξβ3hK]QLA[ξβ3hV]KKY[ξβ3hL]NAI[ξβ3hL]N-OH)	0.716	0.0644
CC[C@H](C)[C@H](NC(=O)[C@H](C)NC(=O)[C@H](CC(N)=O)NC(=O)CC(CC(C)C)NC(=O)[C@H](Cc1ccc(O)cc1)NC(=O)[C@H](CCCCN)NC(=O)[C@H](CCCCN)NC(=O)CC(NC(=O)[C@H](C)NC(=O)[C@H](CC(C)C)NC(=O)[C@H](CCC(N)=O)NC(=O)CC(CCCCN)NC(=O)[C@H](CCCNC(=N)N)NC(=O)[C@H](CC(C)C)NC(=O)[C@H](CCCNC(=N)N)NC(=O)CC(NC(=O)[C@H](Cc1ccc(O)cc1)NC(=O)CC(CC(N)=O)NC(=O)[C@H](CC(=O)O)NC(=O)[C@@H](NC(=O)[C@H](Cc1ccccc1)NC(=O)CC(NC(=O)[C@H](C)NC(=O)[C@H](CC(=O)O)NC(=O)CC(CO)NC(=O)[C@@H](N)Cc1cnc[nH]1)C(C)C)[C@@H](C)O)C(C)O)C(C)C)C(=O)NC(CC(=O)N[C@@H](CC(N)=O)C(=O)O)CC(C)C (stereo partly drawn) (H-H[ξβ3hS]DA[ξβ3hV]FTD[ξβ3hN]Y[ξβ3hT]RLR[ξβ3hK]QLA[ξβ3hV]KKY[ξβ3hL]NAI[ξβ3hL]N-OH)	0.503	298
